Converted amounts (≈) assume the structure as drawn. The source made the active and inactive calls. No cut-off for these calls is given here.
Key:
Klebsiella pneumoniae [1] = experiment: Antibacterial activity against Klebsiella pneumonia assessed as decrease in relative metabolic activity at 4 times of MIC by Alamar Blue assays; format: functional, organism-based
Staphylococcus aureus [2] = experiment: Induction of ROS generation in Staphylococcus aureus ATCC 29213 assessed as increase in fluorescence intensity by DCFH-DA based microscopic analysis; format: functional, organism-based
Staphylococcus aureus [3] = experiment: Induction of resistance development in Staphylococcus aureus ATCC 29213 assessed as after 20 passages measured upto 4.5 times of MIC; format: functional
Staphylococcus aureus [4] = experiment: Anti-biofilm activity against Staphylococcus aureus ATCC 29213 assessed as relative biofilm clearance rate by crystal violet staining based assay; format: functional, organism-based
Cell membrane [5] = experiment: Induction of outer membrane permeability in Klebsiella pneumonia assessed as increase in fluorescence intensity at 2 times of MIC by N-phenyl naphthylamine (NPN) dye based assay; format: cell membranes; conditions: Klebsiella pneumoniae
Klebsiella pneumoniae [6] = experiment: Anti-biofilm activity against Klebsiella pneumonia assessed as relative biofilm clearance rate by crystal violet staining based assay; format: functional, organism-based
Cell membrane [7] = experiment: Induction of cytoplasmic membrane depolarization in Staphylococcus aureus ATCC 29213 assessed as increase in fluorescence intensity at 2 times of MIC measured upto 40 mins by DiSC35 dye based fluorescence method; format: cell membranes
Cell membrane [8] = experiment: Induction of disruption of membrane integrity in Staphylococcus aureus ATCC 29213 assessed as leakage of intracellular proteins by Acid Blue 90 based assay; format: cell membranes
Cell membrane [9] = experiment: Induction of disruption of membrane integrity in Klebsiella pneumonia assessed as leakage of intracellular proteins by Acid Blue 90 based assay; format: cell membranes; conditions: Klebsiella pneumoniae
Klebsiella pneumoniae [10] = experiment: Induction of resistance development in Klebsiella pneumonia assessed as after 20 passages measured upto 4.5 times of MIC; format: functional
Staphylococcus aureus [11] = experiment: Induction of ROS generation in Staphylococcus aureus ATCC 29213 assessed as loss of GSH activity by Ellmans method; format: functional, organism-based
Calf thymus DNA [12] = experiment: Induction of calf thymus DNA double helix loss assessed as reduction in fluorescence intensity at 525 nm wavelength by acridine orange competition based assay; format: nucleic-acid assay; conditions: Bos taurus
Klebsiella pneumoniae [13] = experiment: Bactericidal activity against Klebsiella pneumonia assessed as time dependent killing at 4 times of MIC measured at 8 hrs; format: functional, organism-based
Calf thymus DNA [14] = experiment: Binding affinity to calf thymus DNA assessed as change in absorption measuring hyperchromism by UV-Vis absorption spectra analysis; format: nucleic-acid assay; conditions: Bos taurus
Cell membrane [15] = experiment: Induction of cytoplasmic membrane depolarization in Klebsiella pneumonia assessed as increase in fluorescence intensity at 2 times of MIC measured upto 40 mins by DiSC35 dye based fluorescence method; format: cell membranes; conditions: Klebsiella pneumoniae, DISRUPTING AGENT
Cell membrane [16] = experiment: Induction of inner membrane permeability in Klebsiella pneumonia assessed as increase in fluorescence intensity by propidium iodide uptake based microscopic imaging assay; format: cell membranes; conditions: Klebsiella pneumoniae
Klebsiella pneumoniae [17] = experiment: Induction of ROS generation in Klebsiella pneumonia assessed as increase in fluorescence intensity by DCFH-DA based microscopic analysis; format: functional, organism-based
Klebsiella pneumoniae [18] = experiment: Induction of ROS generation in Klebsiella pneumonia assessed as loss of GSH activity by Ellmans method; format: functional, organism-based
Cell membrane [19] = experiment: Induction of inner membrane permeability in Staphylococcus aureus ATCC 29213 assessed as increase in fluorescence intensity by propidium iodide uptake based microscopic imaging assay; format: cell membranes
Staphylococcus aureus [20] = experiment: Antibacterial activity against Staphylococcus aureus ATCC 29213 assessed as decrease in relative metabolic activity at 4 times of MIC by Alamar Blue assays; format: functional, organism-based
Staphylococcus aureus [21] = experiment: Bactericidal activity against Staphylococcus aureus ATCC 29213 assessed as time dependent killing at 4 times of MIC measured at 8 hrs; format: functional, organism-based
Staphylococcus aureus [22] = experiment: Antibacterial activity against methicillin-resistant Staphylococcus aureus assessed growth inhibition by micro broth dilution method; format: functional
Escherichia coli [23] = experiment: Antibacterial activity against Escherichia coli assessed growth inhibition by micro broth dilution method; format: functional
Staphylococcus aureus [24] = experiment: Antibacterial activity against Staphylococcus aureus assessed growth inhibition by micro broth dilution method; format: functional
Staphylococcus aureus [25] = experiment: Antibacterial activity against Staphylococcus aureus ATCC 25923 assessed growth inhibition by micro broth dilution method; format: functional
[26] = Hemolytic activity in human RBC assessed as hemolytic rate incubated measured upto 64 ug/ml; format: toxicity, cell-based, Erythrocyte; conditions: human red blood cells (erythrocytes), up to 64 µg/mL, read-out: Activity
Klebsiella pneumoniae [27] = experiment: Antibacterial activity against Klebsiella pneumonia assessed growth inhibition by micro broth dilution method; format: functional
Escherichia coli [28] = experiment: Antibacterial activity against Escherichia coli ATCC 25922 assessed growth inhibition by micro broth dilution method; format: functional
Enterococcus faecalis = experiment: Antibacterial activity against Enterococcus faecalis assessed growth inhibition by micro broth dilution method; format: functional
Acinetobacter baumannii = experiment: Antibacterial activity against Acinetobacter baumannii assessed growth inhibition by micro broth dilution method; format: functional
Pseudomonas aeruginosa [29] = experiment: Antibacterial activity against Pseudomonas aeruginosa assessed growth inhibition by micro broth dilution method; format: functional
Pseudomonas aeruginosa [30] = experiment: Antibacterial activity against Pseudomonas aeruginosa ATCC 27853 assessed growth inhibition by micro broth dilution method; format: functional
Staphylococcus aureus [31] = experiment: Antibacterial activity against Staphylococcus aureus ATCC 29213 assessed growth inhibition by micro broth dilution method; format: functional
[32] = Cmax in mouse at 10 mg/kg, iv; format: ADME, organism-based; conditions: in vivo
[33] = Half life in mouse at 10 mg/kg, iv; format: ADME, organism-based; conditions: in vivo
[34] = MRT (0 to t) in mouse at 10 mg/kg, po; format: ADME, organism-based; conditions: in vivo
[35] = Tmax in mouse at 10 mg/kg, po; format: ADME, organism-based; conditions: in vivo
Klebsiella pneumoniae [36] = experiment: In vivo anti-infective effect against Klebsiella pneumonia p1-6305014 infected in mouse model assessed as reduction bacterial growth at 15 mg/kg; format: functional
[37] = Apparent volume of distribution in mouse at 10 mg/kg, po; format: ADME, organism-based; conditions: in vivo
[38] = Volume of distribution at steady state in mouse at 10 mg/kg, iv; format: ADME, organism-based; conditions: in vivo
[39] = AUMC (0 to t) in mouse at 10 mg/kg, po; format: ADME, organism-based; conditions: in vivo
[40] = Cytotoxicity against human FHC cells assessed as cell viability at 8 ug/ml; format: toxicity, cell-based; conditions: at 8 µg/mL, read-out: Activity
[41] = Clearance in mouse at 10 mg/kg, po; format: ADME, organism-based; conditions: in vivo
[42] = AUC (0 to t) in mouse at 10 mg/kg, po; format: ADME, organism-based; conditions: in vivo
[43] = Clearance in mouse at 10 mg/kg, iv; format: ADME, organism-based; conditions: in vivo
Klebsiella pneumoniae [44] = experiment: Anti-biofilm activity against Klebsiella pneumonia assessed as relative biofilm clearance rate at 8 times of MIC by crystal violet staining based assay; format: functional
[45] = MRT (0 to t) in mouse at 10 mg/kg, iv; format: ADME, organism-based; conditions: in vivo
[46] = AUMC (0 to infinity) in mouse at 10 mg/kg, iv; format: ADME, organism-based; conditions: in vivo
Erythrocyte = experiment: Hemolytic activity in human RBC incubated measured upto 128 ug/ml; format: toxicity, cell-based; conditions: dose < 128 µg/ml
[47] = MRT (0 to infinity) in mouse at 10 mg/kg, po; format: ADME, organism-based; conditions: in vivo
[48] = AUC (0 to t) in mouse at 10 mg/kg, iv; format: ADME, organism-based; conditions: in vivo
[49] = AUC (0 to infinity) in mouse at 10 mg/kg, po; format: ADME, organism-based; conditions: in vivo
[50] = Thermodynamic solubility of the compound in water; format: physicochemical; conditions: read-out: Therm_solubility
[51] = AUMC (0 to t) in mouse at 10 mg/kg, iv; format: ADME, organism-based; conditions: in vivo
[52] = Half life in mouse at 10 mg/kg, po; format: ADME, organism-based; conditions: in vivo
[53] = Oral bioavailability in mouse at 10 mg/kg; format: ADME, organism-based; conditions: in vivo
Staphylococcus aureus [54] = experiment: Anti-biofilm activity against Staphylococcus aureus ATCC 29213 assessed as relative biofilm clearance rate at 8 times of MIC by crystal violet staining based assay; format: functional
[55] = AUMC (0 to infinity) in mouse at 10 mg/kg, po; format: ADME, organism-based; conditions: in vivo
Klebsiella pneumoniae [56] = experiment: In vivo anti-infective effect against Klebsiella pneumonia p1-6305014 infected in mouse model assessed as reduction bacterial growth at 5 mg/kg; format: functional
[57] = Tmax in mouse at 10 mg/kg, iv; format: ADME, organism-based; conditions: in vivo
[58] = AUC (0 to infinity) in mouse at 10 mg/kg, iv; format: ADME, organism-based; conditions: in vivo
[59] = Cmax in mouse at 10 mg/kg, po; format: ADME, organism-based; conditions: in vivo
[60] = MRT (0 to infinity) in mouse at 10 mg/kg, iv; format: ADME, organism-based; conditions: in vivo
[61] = Cytotoxicity against human NOK cells assessed as cell viability at 8 ug/ml; format: toxicity, cell-based; conditions: nok-si, dose 8 µg/ml
[62] = Initial plasma concentration in mouse at 10 mg/kg, iv; format: ADME, organism-based; conditions: in vivo

## CCOC(=O)c1cn(Cc2ccc(Cl)c(Cl)c2)c2cc(C(C#N)C(=O)OCC)c(F)cc2c1=O (stereo unspecified)
Klebsiella pneumoniae [1]
  Activity: Active
Staphylococcus aureus [2]
  Activity: Dose-Dependent Effect
Staphylococcus aureus [3]
  Activity: Active
Staphylococcus aureus [4]
  Activity: Dose-Dependent Effect
Cell membrane [5]
  Activity: Dose-Dependent Effect
Klebsiella pneumoniae [6]
  Activity: Dose-Dependent Effect
Cell membrane [7]
  Activity: Active
Cell membrane [8]
  Activity: Dose-Dependent Effect
Cell membrane [9]
  Activity: Dose-Dependent Effect
Klebsiella pneumoniae [10]
  Activity: Active
Staphylococcus aureus [11]
  Activity: Dose-Dependent Effect
Calf thymus DNA [12]
  Activity: Active
Klebsiella pneumoniae [13]
  Activity: Active
Calf thymus DNA [14]
  Activity: Active
Cell membrane [15]
  Activity: Active
Cell membrane [16]
  Activity: Dose-Dependent Effect
Klebsiella pneumoniae [17]
  Activity: Dose-Dependent Effect
Klebsiella pneumoniae [18]
  Activity: Dose-Dependent Effect
Cell membrane [19]
  Activity: Dose-Dependent Effect
Staphylococcus aureus [20]
  Activity: Active
Staphylococcus aureus [21]
  Activity: Active

## CCCCCCCCn1cc(C(=O)OCC)c(=O)c2cc(F)c(C(C#N)C(=O)OCC)cc21 (stereo unspecified)
Staphylococcus aureus [22]
  MIC: 8 µg/mL (≈ 17.4 µM)
Escherichia coli [23]
  MIC: 2 µg/mL (≈ 4.36 µM)
Staphylococcus aureus [24]
  MIC: 8 µg/mL (≈ 17.4 µM)
Staphylococcus aureus [25]
  MIC: 1 µg/mL (≈ 2.18 µM)
[26]
  hemolysis: 50%
Klebsiella pneumoniae [27]
  MIC: 0.5 µg/mL (≈ 1.09 µM)
Escherichia coli [28]
  MIC: 2 µg/mL (≈ 4.36 µM)
Enterococcus faecalis
  MIC: 4 µg/mL (≈ 8.72 µM)
Acinetobacter baumannii
  MIC: 0.5 µg/mL (≈ 1.09 µM)
Pseudomonas aeruginosa [29]
  MIC: 0.5 µg/mL (≈ 1.09 µM)
Pseudomonas aeruginosa [30]
  MIC: 0.5 µg/mL (≈ 1.09 µM)
Staphylococcus aureus [31]
  MIC: 0.5 µg/mL (≈ 1.09 µM)

## CCCCCCCCn1cc(C(=O)OCC)c(=O)c2cc(F)c([C-](C#N)C(=O)OCC)cc21.[Na+] (stereo unspecified)
[32]
  Cmax: 549 ng/mL
[33]
  half-life: 12 min
[34]
  MRT last: 161 min
[35]
  Tmax: 30 min
Staphylococcus aureus [22]
  MIC: 8 µg/mL
Klebsiella pneumoniae [36]
  Activity: 4 log10CFU
[37]
  Vz: 133.561 L/kg
[38]
  Vdss: 1.976 L/kg
Escherichia coli [23]
  MIC: 0.25 µg/mL
[39]
  AUMCt: 523 hr.hr.ng/ml
[40]
  viability at 8 ug/ml: 70%
[41]
  CL/F: 698 mL/min/kg
[42]
  AUC(0-t): 196 ng·h/mL
Staphylococcus aureus [24]
  MIC: 16 µg/mL
[43]
  CL: 191.07 mL/min/kg
Klebsiella pneumoniae [44]
  Activity: 70%
Staphylococcus aureus [25]
  MIC: 0.25 µg/mL
[45]
  MRT last: 9 min
[46]
  AUMC: 15 hr.hr.ng/ml
Klebsiella pneumoniae [27]
  MIC: 0.25 µg/mL
Erythrocyte
  Activity: Non-Toxic
[47]
  MRT: 250 min
[48]
  AUC(0-t): 89.3 ng·h/mL
[49]
  AUC: 241 ng·h/mL
[50]
  solubility thermodynamic: 27.5 µg/mL
[51]
  AUMCt: 13.3 hr.hr.ng/ml
Escherichia coli [28]
  MIC: 0.25 µg/mL
[52]
  half-life: 133 min
[53]
  F: 26.6%
Enterococcus faecalis
  MIC: 4 µg/mL
Staphylococcus aureus [54]
  Activity: 70%
[55]
  AUMC: 1035 hr.hr.ng/ml
Klebsiella pneumoniae [56]
  Activity: 1.5 log10CFU
Acinetobacter baumannii
  MIC: 0.25 µg/mL
[57]
  Tmax: 1.98 min
[58]
  AUC: 90.6 ng·h/mL
Pseudomonas aeruginosa [29]
  MIC: 0.5 µg/mL
[59]
  Cmax: 89 ng/mL
[60]
  MRT inf: 10.2 min
Pseudomonas aeruginosa [30]
  MIC: 0.5 µg/mL
Staphylococcus aureus [31]
  MIC: 0.25 µg/mL
[61]
  Activity: Non-Toxic
[62]
  C0: 1046 ng/mL

Source: ChEMBL document CHEMBL5528028, “Discovery of benzopyridone cyanoacetates as new type of potential broad-spectrum antibacterial candidates” (Eur J Med Chem, 2024)
